Several values for one entry are separate records, joined by “and”; a condition that tells them apart may be missing. Identical values can stand only once.
Tests used:
[1] = tested on: Hz formation in ABS P. falciparum 3D7 parasites; test: Cellular heme fractionation assay; assay type: cell-based, Plasmodium falciparum
Procedure: A heme fractionation assay was used to measure the inhibition of Hz formation in cultured ABS P. falciparum 3D7 parasites as previously described. […] Late trophozoites were harvested after 32 hours of incubation by lysing RBCs with 0.05% saponin followed by multiple washes with 1 × PBS (pH 7.5) to remove any residual traces of hemoglobin. The parasite pellet was resuspended in PBS and the total number of trophozoites isolated was quantified using flow cytometry. Contents of the trophozoite pellet were released by hypotonic lysis and sonication. After centrifugation, treatments with HEPES buffer (pH 7.4), sodium dodecyl sulfate, pyridine, and NaOH, allowed us to separate the fractions corresponding to the different heme species of interest. A microplate reader was employed to measure the UV-visible spectrum of each heme fraction as a Fe(III)heme-pyridine complex. Fractions of undigested hemoglobin, “free” heme, and Hz were quantified using a heme standard curve based on the mass of each heme-Fe species per mature trophozoite (fg/cell), obtained by dividing the total amount of each heme species by the corresponding number of parasites in that fraction as determined by flow cytometry. Statistical comparisons and analyses for trends employed Students’ t-tests (GraphPad Prism version 9).

[2] = tested on: P. berghei ookinete formation; test: In vitro inhibition of ookinete formation (nLuc conversion assay), 24 h; assay type: cell-based, Plasmodium berghei; conditions: for % Inhibition of ookinete conversion: single assays
Procedure: To measure the inhibition of gamete conversion into ookinetes, a mutant luciferase-expressing P. berghei line (nLuc) was intraperitoneally injected into BALB/c mice. After 3–4 days, gametocyte-carrying blood samples were collected. In vitro compound testing was carried out by exposing 4 μL of infected blood mixed with 80 μL of culture medium (RPMI-1640 supplemented with 25 mM HEPES, 50 mg/L hypoxanthine, and 1% penicillin/streptomycin/neomycin at pH 8.3) to a range of drug concentrations for 24 hours at 21°C. Following the incubation, 20 μL of nLuc substrate (Nano-Glo Luciferase Assay System, Promega) was added to each well, and luminescence was measured in a luminometer. Increased light emission correlated with nLuc production and subsequent luciferase activity due to in vitro fertilization and ookinete conversion, as luciferase expression in this parasite line is regulated by the CTRP promoter that is ookinete-specific. Conversion inhibition was calculated as the percentage of luciferase activity of drug-exposed wells relative to untreated ones, from which IC50 values were interpolated.

[3] = 0.5x IC50, 32 h, single replicates
[4] = 0.5–3.0 × IC50 vs untreated control
[5] = 1x IC50, 32 h, single replicates
[6] = 2x IC50, 32 h, single replicates
[7] = 2.5x IC50, 32 h, single replicates
[8] = 3x IC50, 32 h, single replicates

## COc1cc2nccc(Nc3cccc(Oc4ccccc4)c3)c2cc1OC [LDT-623]
[1]; 0.5x IC50, 32 h, Mean
  %Hb: 6.49%
  %Heme: 9.94%
  %Hemozoin: 83.57%
  Hb Fe (fg/troph): 3.40 fg/troph
  Heme Fe (fg/troph): 5.28 fg/troph
  Hemozoin Fe (fg/troph): 44.40 fg/troph
  Total Fe (fg/troph): 54.33 fg/troph
[1]; [3]
  %Hb: 5.0225% and 6.9078% and 7.3751% and 6.6526%
  %Heme: 10.3876% and 10.3966% and 9.0005% and 9.9788%
  %Hemozoin: 84.5899% and 82.6957% and 83.6245% and 83.3686%
  Hb Fe (fg/troph): 2.7844 fg/troph and 3.6098 fg/troph and 3.8007 fg/troph and 3.8647 fg/troph
  Heme Fe (fg/troph): 5.7588 fg/troph and 5.4329 fg/troph and 4.6383 fg/troph and 5.7970 fg/troph
  Hemozoin Fe (fg/troph): 46.8963 fg/troph and 43.2142 fg/troph and 43.0950 fg/troph and 48.4315 fg/troph
  Total Fe (fg/troph): 55.44 fg/troph and 52.26 fg/troph and 51.53 fg/troph and 58.09 fg/troph
[1]; [4]
  effect on Hz levels: significant concentration-dependent decreases in the levels of Hz
  effect on undigested Hb: augmented percentage of undigested Hb was observed starting at 0.5 × IC50
  effect on “free” heme: statistically significant increase in “free” heme in a concentration-dependent manner
[1]; 1x IC50, 32 h, Mean
  %Hb: 7.02%
  %Heme: 10.55%
  %Hemozoin: 82.43%
  Hb Fe (fg/troph): 3.49 fg/troph
  Heme Fe (fg/troph): 5.57 fg/troph
  Hemozoin Fe (fg/troph): 44.22 fg/troph
  Total Fe (fg/troph): 54.30 fg/troph
[1]; [5]
  %Hb: 4.1032% and 6.0183% and 9.3168% and 8.6327%
  %Heme: 11.3186% and 11.3158% and 8.7646% and 10.7959%
  %Hemozoin: 84.5783% and 82.6659% and 81.9186% and 80.5714%
  Hb Fe (fg/troph): 2.0348 fg/troph and 3.3626 fg/troph and 5.0638 fg/troph and 4.9539 fg/troph
  Heme Fe (fg/troph): 5.6130 fg/troph and 6.3225 fg/troph and 4.7637 fg/troph and 6.1953 fg/troph
  Hemozoin Fe (fg/troph): 41.9435 fg/troph and 46.1884 fg/troph and 44.5239 fg/troph and 46.2360 fg/troph
  Total Fe (fg/troph): 49.59 fg/troph and 55.87 fg/troph and 54.35 fg/troph and 57.39 fg/troph
[1]; 2x IC50, 32 h, Mean
  %Hb: 5.86%
  %Heme: 12.64%
  %Hemozoin: 81.50%
  Hb Fe (fg/troph): 3.50 fg/troph
  Heme Fe (fg/troph): 6.66 fg/troph
  Hemozoin Fe (fg/troph): 43.79 fg/troph
  Total Fe (fg/troph): 54.83 fg/troph
[1]; [6]
  %Hb: 4.9454% and 8.0340% and 6.4023% and 4.0696%
  %Heme: 13.6029% and 11.9660% and 11.4824% and 13.5021%
  %Hemozoin: 81.4516% and 80.0000% and 82.1153% and 82.4284%
  Hb Fe (fg/troph): 2.6441 fg/troph and 4.5716 fg/troph and 3.2970 fg/troph and 2.3379 fg/troph
  Heme Fe (fg/troph): 7.2727 fg/troph and 6.8090 fg/troph and 5.9132 fg/troph and 7.7566 fg/troph
  Hemozoin Fe (fg/troph): 43.5476 fg/troph and 45.5226 fg/troph and 42.2872 fg/troph and 47.3530 fg/troph
  Total Fe (fg/troph): 53.46 fg/troph and 56.90 fg/troph and 51.50 fg/troph and 57.45 fg/troph
[1]; 2.5x IC50, 32 h, Mean
  %Hb: 6.89%
  %Heme: 13.61%
  %Hemozoin: 79.50%
  Hb Fe (fg/troph): 3.48 fg/troph
  Heme Fe (fg/troph): 7.40 fg/troph
  Hemozoin Fe (fg/troph): 43.37 fg/troph
  Total Fe (fg/troph): 54.23 fg/troph
[1]; [7]
  %Hb: 6.2660% and 6.4635% and 6.5388% and 8.2899%
  %Heme: 15.0745% and 13.6837% and 12.1024% and 13.5701%
  %Hemozoin: 78.6596% and 79.8529% and 81.3587% and 78.1400%
  Hb Fe (fg/troph): 3.4040 fg/troph and 3.6534 fg/troph and 3.3950 fg/troph and 4.4889 fg/troph
  Heme Fe (fg/troph): 8.1894 fg/troph and 7.7345 fg/troph and 6.2837 fg/troph and 7.3481 fg/troph
  Hemozoin Fe (fg/troph): 42.7326 fg/troph and 45.1360 fg/troph and 42.2421 fg/troph and 42.3122 fg/troph
  Total Fe (fg/troph): 54.33 fg/troph and 56.52 fg/troph and 51.92 fg/troph and 54.15 fg/troph
[1]; 3x IC50, 32 h, Mean
  %Hb: 8.06%
  %Heme: 18.59%
  %Hemozoin: 73.35%
  Hb Fe (fg/troph): 4.13 fg/troph
  Heme Fe (fg/troph): 9.47 fg/troph
  Hemozoin Fe (fg/troph): 38.59 fg/troph
  Total Fe (fg/troph): 52.57 fg/troph
[1]; [8]
  %Hb: 7.5148% and 8.7626% and 7.4537% and 8.4952%
  %Heme: 20.9692% and 17.6208% and 15.9272% and 19.8532%
  %Hemozoin: 71.5161% and 73.6166% and 76.6190% and 71.6515%
  Hb Fe (fg/troph): 3.8296 fg/troph and 4.6352 fg/troph and 3.9291 fg/troph and 4.5643 fg/troph
  Heme Fe (fg/troph): 10.6861 fg/troph and 9.3209 fg/troph and 8.3957 fg/troph and 10.6667 fg/troph
  Hemozoin Fe (fg/troph): 36.4452 fg/troph and 38.9409 fg/troph and 40.3879 fg/troph and 38.4969 fg/troph
  Total Fe (fg/troph): 50.96 fg/troph and 52.90 fg/troph and 52.71 fg/troph and 53.73 fg/troph
[2]; Log conc. (uM) 0.39794
  % Inhibition of ookinete conversion: 72.78% and 76.99% and 75.53% and 88.24% and 87.02% and 67.23% and 81.09%
[2]; Log conc. (uM) 0.69897
  % Inhibition of ookinete conversion: 88.00% and 95.67% and 86.70% and 98.41% and 98.02% and 73.84% and 94.25%
[2]; Log conc. (uM) 1
  % Inhibition of ookinete conversion: 99.93% and 99.92% and 99.83% and 99.70% and 99.35% and 98.41% and 99.32%
[2]; Log conc. (uM) -1.70927
  % Inhibition of ookinete conversion: 0.00%
[2]; Plasmodium berghei, read-out: IC50 inhibition of ookinete formation, mean, N = 7
  IC50: 1500 nM

From PMC11521309, “A novel 4-aminoquinoline chemotype with multistage antimalarial activity and lack of cross-resistance with PfCRT and PfMDR1 mutants” (PLOS Pathogens, 2024)
